# Reference: article PMC8217170, “Phase Ib dose-escalation study of the hypoxia-modifier Myo-inositol trispyrophosphate in patients with hepatopancreatobiliary tumors” (Nature Communications, 2021)
# “And” between values parts separate entries of the source, which are not always exact repeats. Equal values may be shown once.
# Test: Plasma levels and pharmacokinetics of intravenous ITPP
# Conditions: for VSSO / VZO / AUCTmax / AUC∞ / AUC∞ / Dose / AUMCTmax / AUMC∞ / CLO / Clast / Cmax / Cmax / Dose / Cmin / Elimination rate λz / Half-life / T0.5 / MRTTmax / MRT∞ / Tlast / Tmax: individual patients
structure (smiles),measurement,setting,value
"O=P1(O)OC2C3OP(=O)(O)OP(=O)(O)OC3C3OP(=O)(O)OP(=O)(O)OC3C2OP(=O)(O)O1 (stereo not drawn) [ITPP, Myo-inositol trispyrophosphate]",VSSO,cohort 2 (3732 mg/m2),10.6 L and 11.9 L and 8.8 L
same,VZO,cohort 2 (3732 mg/m2),8.9 L and 10.8 L and 8.1 L
same,AUCTmax,cohort 3 (5600 mg/m2),1142.0 µg·h/mL and 856.4 µg·h/mL and 1779.2 µg·h/mL
same,AUC∞,cohort 3 (5600 mg/m2),1264.3 µg·h/mL and 945.9 µg·h/mL and 1987.5 µg·h/mL
same,AUC∞ / Dose,cohort 3 (5600 mg/m2),0.2 h*mg/L/mg (2×) and 0.4 h*mg/L/mg
same,AUMCTmax,cohort 3 (5600 mg/m2),6061.8 h2*mg/L and 4859.5 h2*mg/L and 9884.9 h2*mg/L
same,AUMC∞,cohort 3 (5600 mg/m2),7579.9 h2*mg/L and 5932.4 h2*mg/L and 12427.3 h2*mg/L
same,CLO,cohort 3 (5600 mg/m2),4.4 L/h and 5.9 L/h and 2.8 L/h
same,Clast,cohort 3 (5600 mg/m2),50.5 µg/mL and 45.2 µg/mL and 94.2 µg/mL
same,Cmax,cohort 3 (5600 mg/m2),163.0 µg/mL and 120.7 µg/mL and 246.0 µg/mL
same,Cmax / Dose,cohort 3 (5600 mg/m2),0.0 mg/L/mg
same,Cmin,cohort 3 (5600 mg/m2),0 ng/mL
same,Elimination rate λz,cohort 3 (5600 mg/m2),0.4 /h and 0.5 /h (2×)
same,Half-life / T0.5,cohort 3 (5600 mg/m2),1.7 h and 1.4 h and 1.5 h
same,MRTTmax,cohort 3 (5600 mg/m2),1.3 h and 1.7 h and 1.6 h
same,MRT∞,cohort 3 (5600 mg/m2),2.0 h and 2.3 h (2×)
same,Tlast,cohort 3 (5600 mg/m2),10 h
same,Tmax,cohort 3 (5600 mg/m2),6.0 h
same,VSSO,cohort 3 (5600 mg/m2),8.8 L and 13.4 L and 6.3 L
same,VZO,cohort 3 (5600 mg/m2),10.7 L and 11.7 L and 6.2 L
same,AUCTmax,cohort 4 (7000 mg/m2),1942.5 µg·h/mL and 1258.2 µg·h/mL and 1667.1 µg·h/mL and 1676.0 µg·h/mL
same,AUC∞,cohort 4 (7000 mg/m2),3708.1 µg·h/mL and 1559.8 µg·h/mL and 2130.6 µg·h/mL and 1755.9 µg·h/mL
same,AUC∞ / Dose,cohort 4 (7000 mg/m2),0.5 h*mg/L/mg and 0.2 h*mg/L/mg and 0.3 h*mg/L/mg (2×)
same,AUMCTmax,cohort 4 (7000 mg/m2),11888.0 h2*mg/L and 7283.0 h2*mg/L and 9303.5 h2*mg/L and 8707.6 h2*mg/L
same,AUMC∞,cohort 4 (7000 mg/m2),44109.2 h2*mg/L and 11265.8 h2*mg/L and 15649.8 h2*mg/L and 9654.5 h2*mg/L
same,CLO,cohort 4 (7000 mg/m2),1.9 L/h and 4.5 L/h and 3.3 L/h and 4.0 L/h
same,Clast,cohort 4 (7000 mg/m2),214.0 µg/mL and 94.0 µg/mL and 125.5 µg/mL and 43.0 µg/mL
same,Cmax,cohort 4 (7000 mg/m2),283.0 µg/mL and 166.5 µg/mL and 224.5 µg/mL and 292.0 µg/mL
same,Cmax / Dose,cohort 4 (7000 mg/m2),0.0 mg/L/mg
same,Cmin,cohort 4 (7000 mg/m2),0 ng/mL
same,Elimination rate λz,cohort 4 (7000 mg/m2),0.1 /h and 0.3 /h (2×) and 0.5 /h
same,Half-life / T0.5,cohort 4 (7000 mg/m2),5.7 h and 2.2 h and 2.6 h and 1.3 h
same,MRTTmax,cohort 4 (7000 mg/m2),2.1 h and 1.8 h and 1.6 h and 1.2 h
same,MRT∞,cohort 4 (7000 mg/m2),7.9 h and 3.2 h and 3.3 h and 1.5 h
same,Tlast,cohort 4 (7000 mg/m2),10 h
same,Tmax,cohort 4 (7000 mg/m2),9.0 h and 6.0 h (2×) and 3.0 h
same,VSSO,cohort 4 (7000 mg/m2),14.9 L and 14.5 L and 11.0 L and 6.0 L
same,VZO,cohort 4 (7000 mg/m2),15.6 L and 14.4 L and 12.1 L and 7.4 L
same,AUCTmax,cohort 5 (8750 mg/m2),1729.5 µg·h/mL and 2397.4 µg·h/mL and 1424.5 µg·h/mL
same,AUC∞,cohort 5 (8750 mg/m2),1910.9 µg·h/mL and 2946.9 µg·h/mL and 1803.3 µg·h/mL
same,AUC∞ / Dose,cohort 5 (8750 mg/m2),0.2 h*mg/L/mg (2×) and 0.3 h*mg/L/mg
same,AUMCTmax,cohort 5 (8750 mg/m2),9560.8 h2*mg/L and 13507.9 h2*mg/L and 8120.6 h2*mg/L
same,AUMC∞,cohort 5 (8750 mg/m2),11777.2 h2*mg/L and 20800.6 h2*mg/L and 13329.9 h2*mg/L
same,CLO,cohort 5 (8750 mg/m2),4.6 L/h and 3.0 L/h and 4.9 L/h
same,Clast,cohort 5 (8750 mg/m2),81.5 µg/mL and 168.0 µg/mL and 101.0 µg/mL
same,Cmax,cohort 5 (8750 mg/m2),266.5 µg/mL and 306.0 µg/mL and 201.0 µg/mL
same,Cmax / Dose,cohort 5 (8750 mg/m2),0.0 mg/L/mg
same,Cmin,cohort 5 (8750 mg/m2),0 ng/mL
same,Elimination rate λz,cohort 5 (8750 mg/m2),0.4 /h and 0.3 /h (2×)
same,Half-life / T0.5,cohort 5 (8750 mg/m2),1.5 h and 2.3 h and 2.6 h
same,MRTTmax,cohort 5 (8750 mg/m2),1.5 h and 1.6 h and 1.7 h
same,MRT∞,cohort 5 (8750 mg/m2),2.2 h and 3.1 h and 3.4 h
same,Tlast,cohort 5 (8750 mg/m2),10 h
same,Tmax,cohort 5 (8750 mg/m2),6.0 h
same,VSSO,cohort 5 (8750 mg/m2),9.9 L and 9.1 L and 16.5 L
same,VZO,cohort 5 (8750 mg/m2),10.2 L and 9.7 L and 18.2 L
same,AUCTmax,cohort 6 (10500 mg/m2),1813.1 µg·h/mL and 2491.5 µg·h/mL and 3266.4 µg·h/mL and 2233.0 µg·h/mL
same,AUC∞,cohort 6 (10500 mg/m2),1921.1 µg·h/mL and 3551.0 µg·h/mL and 8601.3 µg·h/mL and 2661.5 µg·h/mL
same,AUC∞ / Dose,cohort 6 (10500 mg/m2),0.2 h*mg/L/mg and 0.3 h*mg/L/mg (2×) and 0.8 h*mg/L/mg
same,AUMCTmax,cohort 6 (10500 mg/m2),10264.8 h2*mg/L and 13653.6 h2*mg/L and 19354.9 h2*mg/L and 12411.4 h2*mg/L
same,AUMC∞,cohort 6 (10500 mg/m2),11500.0 h2*mg/L and 30316.3 h2*mg/L and 157035.6 h2*mg/L and 17933.0 h2*mg/L
same,CLO,cohort 6 (10500 mg/m2),5.5 L/h and 3.0 L/h and 1.2 L/h and 3.9 L/h
same,Clast,cohort 6 (10500 mg/m2),74.8 µg/mL and 185.0 µg/mL and 337.5 µg/mL and 148.5 µg/mL
same,Cmax,cohort 6 (10500 mg/m2),265.0 µg/mL and 339.5 µg/mL and 451.0 µg/mL and 299.5 µg/mL
same,Cmax / Dose,cohort 6 (10500 mg/m2),0.0 mg/L/mg
same,Cmin,cohort 6 (10500 mg/m2),0 ng/mL
same,Elimination rate λz,cohort 6 (10500 mg/m2),0.7 h⁻¹ and 0.2 h⁻¹ and 0.1 h⁻¹ and 0.3 h⁻¹
same,Half-life / T0.5,cohort 6 (10500 mg/m2),1.0 h and 4.0 h and 11.0 h and 2.0 h
same,MRTTmax,cohort 6 (10500 mg/m2),1.7 h and 1.5 h and 1.9 h and 1.6 h
same,MRT∞,cohort 6 (10500 mg/m2),2.0 h and 4.5 h and 14.3 h and 2.7 h
same,Tlast,cohort 6 (10500 mg/m2),10 h
same,Tmax,cohort 6 (10500 mg/m2),6.0 h (2×) and 3.0 h (2×)
same,VSSO,cohort 6 (10500 mg/m2),10.9 L and 13.4 L and 17.4 L and 10.8 L
same,VZO,cohort 6 (10500 mg/m2),7.9 L and 16.9 L and 19.3 L and 11.4 L
same,AUCTmax,cohort 7 (12390 mg/m2),2548.8 µg·h/mL and 2725.4 µg·h/mL and 2231.0 µg·h/mL
same,AUC∞,cohort 7 (12390 mg/m2),3050.7 µg·h/mL and 3012.0 µg·h/mL and 2566.2 µg·h/mL
same,AUC∞ / Dose,cohort 7 (12390 mg/m2),0.2 mg·h/L/mg
same,AUMCTmax,cohort 7 (12390 mg/m2),14937.6 h2*mg/L and 15888.2 h2*mg/L and 12461.8 h2*mg/L
same,AUMC∞,cohort 7 (12390 mg/m2),21377.1 h2*mg/L and 19295.7 h2*mg/L and 16684.7 h2*mg/L
same,CLO,cohort 7 (12390 mg/m2),4.1 L/h (2×) and 4.8 L/h
same,Clast,cohort 7 (12390 mg/m2),177.5 µg/mL and 152.0 µg/mL and 129.0 µg/mL
same,Cmax,cohort 7 (12390 mg/m2),367.5 µg/mL and 403.5 µg/mL and 311.0 µg/mL
same,Cmax / Dose,cohort 7 (12390 mg/m2),0.0 mg/L/mg
same,Cmin,cohort 7 (12390 mg/m2),0 ng/mL
same,Elimination rate λz,cohort 7 (12390 mg/m2),0.4 /h (2×) and 0.5 /h
same,Half-life / T0.5,cohort 7 (12390 mg/m2),2.0 h and 1.3 h and 1.8 h
same,MRTTmax,cohort 7 (12390 mg/m2),1.9 h and 1.8 h and 1.6 h
same,MRT∞,cohort 7 (12390 mg/m2),3.0 h and 2.4 h and 2.5 h
same,Tlast,cohort 7 (12390 mg/m2),10 h
same,Tmax,cohort 7 (12390 mg/m2),6.0 h
same,VSSO,cohort 7 (12390 mg/m2),12.2 L and 9.9 L and 12.1 L
same,VZO,cohort 7 (12390 mg/m2),11.5 L and 7.8 L and 12.5 L
same,AUCTmax,cohort 8 (14500 mg/m2),3458.0 µg·h/mL and 2612.8 µg·h/mL and 3213.9 µg·h/mL and 2461.1 µg·h/mL
same,AUC∞,cohort 8 (14500 mg/m2),3978.5 µg·h/mL and 2818.3 µg·h/mL and 3977.9 µg·h/mL and 2763.6 µg·h/mL
same,AUC∞ / Dose,cohort 8 (14500 mg/m2),0.3 h*mg/L/mg (2×) and 0.2 h*mg/L/mg (2×)
same,AUMCTmax,cohort 8 (14500 mg/m2),20144.2 h2*mg/L and 14245.4 h2*mg/L and 18540.8 h2*mg/L and 14081.6 h2*mg/L
same,AUMC∞,cohort 8 (14500 mg/m2),26577.3 h2*mg/L and 16679.9 h2*mg/L and 28758.2 h2*mg/L and 17835.7 h2*mg/L
same,CLO,cohort 8 (14500 mg/m2),3.6 L/h (2×) and 5.1 L/h and 5.2 L/h
same,Clast,cohort 8 (14500 mg/m2),220.5 µg/mL and 111.5 µg/mL and 226.5 µg/mL and 125.7 µg/mL
same,Cmax,cohort 8 (14500 mg/m2),496.0 µg/mL and 377.0 µg/mL and 464.5 µg/mL and 426.0 µg/mL
same,Cmax / Dose,cohort 8 (14500 mg/m2),0.0 mg/L/mg
same,Cmin,cohort 8 (14500 mg/m2),0 ng/mL
same,Elimination rate λz,cohort 8 (14500 mg/m2),0.4 /h (2×) and 0.5 /h and 0.3 /h
same,Half-life / T0.5,cohort 8 (14500 mg/m2),1.6 h and 1.3 h and 2.3 h and 1.7 h
same,MRTTmax,cohort 8 (14500 mg/m2),1.8 h (2×) and 1.5 h and 1.7 h
same,MRT∞,cohort 8 (14500 mg/m2),2.7 h and 1.9 h and 3.2 h and 2.5 h
same,Tlast,cohort 8 (14500 mg/m2),10 h
same,Tmax,cohort 8 (14500 mg/m2),6.0 h
same,VSSO,cohort 8 (14500 mg/m2),9.8 L and 9.9 L and 11.8 L and 12.9 L
same,VZO,cohort 8 (14500 mg/m2),8.6 L and 9.5 L and 12.3 L and 12.6 L
same,Half-life,range over the different cohorts,1.3 to 3.3 h
